Values after ≈ are worked out from the molar mass of the structure shown.
tested on: Gram-negative rods (except P. aeruginosa); test: direct antimicrobial activity, MIC; assay type: cell-based
Protocol: Direct antimicrobial activity against Gram-negative and Gram-positive bacterial strains, as well as against yeast, was examined as previously described by the disc-diffusion test, the MIC determination assay, the MBC (for bacteria), and the MFC (for yeasts) determination tests. All the above-mentioned tests were performed according to EUCAST [71, 72] and CLSI [73, 74, 75, 76, 77] recommendations. The following reference agents were used: nitrofurantoin (for Gram-negative rods), linezolid (for Gram-positive bacteria), and fluconazole (in the case of fungi). The new aromatic diboronic acids were dissolved in DMSO (Sigma, St. Louis, MO, USA). In the disc-diffusion test, the concentration of new agents was 0.4 mg per disc.

Q: With `OB(O)c1cc(Br)c(B(O)O)cc1Br` [1i] as the compound, how does the MIC read?
A: 50 to 400 µg/mL (≈ 155 to 1240 µM)

Q: How did the MIC turn out when `OB(O)c1cc(F)ccc1F` [7a, 2,5-difluorophenylboronic acid] was run?
A: 50 to 400 µg/mL (≈ 317 to 2530 µM)

Q: Which MIC does the source give for `O=Cc1cc(F)ccc1B(O)O` [7b] here?
A: 50 to 400 µg/mL (≈ 298 to 2380 µM)

Q: With `OB(O)c1ccccc1B(O)O` [3a, phenylene-1,2-diboronic acid] as the compound, how does the MIC read?
A: 50 to 400 µg/mL (≈ 302 to 2410 µM)
